Measured values published in patent publication US6150414A, “Compositions and methods for treating viral infections” (priority 1992, dated 2000).
pEC50: −log10 of the molar value. Where “and” joins values, the source holds several entries; their conditions need not be identical. Equal entries are not always repeated. Where two headings read alike, the source gives them in different places. One block for each compound: values may come before it.

What was measured:
[1] = system: Friend Leukemia Virus; assay: Inhibition of Friend Leukemia Virus-induced splenomegaly in mice, compounds intraperitoneally 24 hours after virus (Example 1(a)); type: in vivo, BALB/c mice; set-up: Actual Spleen Weight / Average Spleen Weight: unit not given here; settings: Table III; for inhibition in vivo at 0.1 mg / inhibition in vivo at 0.05 mg / inhibition in vivo at 0.2 mg: Mus musculus, ip; for Pooled Average % Inhibition: pooled over 50, 100, 200, 2 × 100 micrograms
From the text: The effects of compositions according to the present invention on infection of mammals with Friend Leukemia Virus (FV) were examined.
Friend Leukemia Virus is an aggressive retrovirus which induces an acute erythroleukemia in sensitive strains of mice such as BALB/c and NIH swiss mice as described in Friend, C. J., Exp. Med. 105: 307-324, 1957; Friend, C. et al. Proc. Natl. Acad. Sci. USA 68: 378-383, 1971; Friend, C. et al. Natl. Cancer Inst. Mongr. 22: 508-552, 1966. The malignant transformation is the result of the combined activities of the Spleen Focus Forming Virus (SFFV) and the ecotropic Murine Friend Leukemia Helper Virus (F-MuLV). The acute erythroleukemia is characterized by hepatosplenomegaly (a marked increase in the size of the spleen and liver) and a severe anemia.
Friend Leukemia Virus was prepared by homogenizing the enlarged spleen of a mouse previously infected with FV, 10 days after intravenous virus injection. The spleen was homogenized in phosphate buffered saline in a volume equal to ten times the weight of the isolated spleen.
(§1) The effects of compositions according to the present invention on the increase in spleen size (splenomegaly) of BALB/c mice (Jackson Labs, Bar Harbor, ME) was examined. In these experiments, the virus (10^6 focus forming units--FFU) was inoculated intravenously and 100 micrograms of the compounds indicated in Table II were administered to the mice intraperitoneally 24 hours later. Each compound was administered once to two mice. The animals were sacrificed ten days later and their spleens weighed.
The present assay has been developed from similar assays using hypericin or pseudohypericin and employing higher numbers of experimental animals per group (e.g. 4 animals). It was discovered however that the specificity and sensitivity of this assay are such that an experimental group of two animals is of more than adequate predictive value.
(§2) As used in Table II (and subsequent Tables of this Example l(a) and (b), "average percent inhibition" is calculated as follows: [formula] wherein "ASWNC" designates "average spleen weight of negative control"; "ASWE" designates "average spleen weight of experimental (treated) subject"; and "ASWPC" designates "average spleen weight of positive control". Average spleen weight is the numerical average of spleen weights of each experimental group (in Table II each such group includes two members).
In these experiments, the virus (10^6 focus forming units--FFU) was inoculated intravenously, and the indicated doses of the antiviral compounds of this invention were administered to the BALB/c mice intraperitoneally 24 hours later. The animals were then sacrificed ten days later and their spleens weighed.
Pseudohypericin was diluted in phosphate buffered saline with 1% ethanol.
An expanded series of experiments was next performed in which various concentrations (i.e. 50, 100, 200 and 2×100, i.e., 100 micrograms administered twice) of a different set of PAC compounds (numbers 16-29 and 30-36 in Table III below) were administered intraperitoneally each according to the same protocol described above. Compounds 16-29 all had 3-5 fused, aromatic rings and no side groups except for oxygen or hydroxyl groups, whereas compounds 30-36 all had 3 fused aromatic rings and side chains selected from the group of oxygen, hydroxyl and methyl.
When 2 doses of the compounds were given, the second dose was administered 24-48 hours after the first injection. The animals were infected and splenomegaly determined as above for the compounds in Table II. In Table III, "pooled average percent inhibition" is calculated by adding the average percent inhibition for each experiment with the same compound and dividing the sum by the number of experiments (i.e. the number 4). […]

[2] = system: Friend Leukemia Virus; assay: In vivo inhibition of Friend Leukemia Virus splenomegaly, intravenous 1-2 hours post infection (Example 10); set-up: species or system mice; settings: Mus musculus, read-out: EC50 for FV-induced splenomegaly
Procedure: (3) In vivo inhibition of Friend Leukemia Virus Splenomegaly performed as described in Example 1 above except that the compounds were administered intravenously 1-2 hours post infection.
(§3) The results presented above in Table IX are presented as EC50 concentrations. These are the effective concentrations which inhibit 50% of the viruses in micromolar concentrations.

[3] = system: retroviruses (virions); assay: Direct inactivation of retroviruses (virions) in vitro (Example 10); type: biochemical, Radiation Leukemia Virus; settings: Table IX
Procedure: (§4) Supernatants (10 ml/tube) from B10.T(6R) cells (Meruelo et al. J. Exp. Med. 147: 470-487, 1978) chronically infected with Radiation Leukemia Virus (RadLV) were obtained by centrifugation of cells in culture at 4° C., 3500 rpm for 15 minutes. The top 2/3 of the supernatant were removed and aliquots were incubated for 30 minutes on ice with the indicated amounts of hypericin or protohypericin. […] Thereafter, supernatants were centrifuged at 100,000×g using a TI70 rotor (Beckman Instruments) for 1 hour at 4° C. The pellet was […] and analyzed for reverse transcriptase activity as follows.
(§5) The reverse transcriptase assay was performed in a volume of 100 microliters containing the following components:
(1) Direct inactivation of retroviruses in vitro, performed as in Example 3 above;
as §3

[4] = target: T1, Radiation Leukemia Virus reverse transcriptase (Radiation murine leukemia virus, UniProt P11227); assay: Radiation Leukemia Virus reverse transcriptase assay, supernatants from infected AQR cells (Examples 4 and 9); type: biochemical; settings: for CPM: replicate
T1 construct: the reverse transcriptase of Radiation Leukemia Virus; endogenous in cells
Procedure: as §4, §5
The antiviral activity of HHA was tested using AQR (Bach and Meruelo, J. Exp. Med. 160:270-285, 1984) cells chronically infected with Radiation Leukemia Virus in the reverse transcriptase assay as described in Example 3 above.
The assays were conducted using the same procedure as in Example 3 above, using supernatants from infected AQR cells.

[5] = system: Friend Virus; assay: Friend Virus-induced splenomegaly, WIS compounds (Example 8); type: in vivo, mice; settings: Table VII; for Actual Spleen Weight: single animal
Procedure: as §1, §2
The AAB compounds whose synthesis is described above were assayed for antiviral activity. WIS-2, -3, -4, -5 and -6 were tested to determine their biological effects on Friend Virus-induced splenomegaly using the procedure and technique set forth in Example 1 above. The assay results (three mice per group were tested each at different concentrationss of the active composition except for the PBS-negative control wherein two animals per group were used) are reported in Table VII below.

- pEC50 ([2]; i.v. 1-2 hours post infection, Table IX): 3.57
- pEC50 [3]: < 4.29
Compound: O=C1c2ccccc2Cc2ccccc21 [Compound 30, Anthrone]
- inhibition in vivo at 0.1 mg ([1]; dose 2 × 100 (micrograms) i.p., read-out: Average Perdosage % Inhibition): 57%
- inhibition in vivo at 0.05 mg ([1]; dose 50 (micrograms) i.p., read-out: Average Perdosage % Inhibition): 31%
- inhibition in vivo at 0.1 mg ([1]; dose 100 (micrograms) i.p., read-out: Average Perdosage % Inhibition): 63%
- inhibition in vivo at 0.2 mg ([1]; dose 200 (micrograms) i.p., read-out: Average Perdosage % Inhibition): 62%
- Average Spleen Weight ([1]; dose 2 × 100 (micrograms) i.p.): 0.9878
- Average Spleen Weight ([1]; dose 50 (micrograms) i.p.): 1.4953
- Average Spleen Weight ([1]; dose 100 (micrograms) i.p.): 0.8790
- Average Spleen Weight ([1]; dose 200 (micrograms) i.p.): 0.9092
- Pooled Average % Inhibition [1]: 53%

Compound: O=C1c2ccccc2C(=O)c2cc(CO)ccc21 [Compound 35, 2-(hydroxymethyl)-anthraquinone]
- inhibition in vivo at 0.1 mg ([1]; read-out: Average Perdosage % Inhibition, dose 2 × 100 (micrograms) i.p.): 75%
- inhibition in vivo at 0.05 mg ([1]; read-out: Average Perdosage % Inhibition, dose 50 (micrograms) i.p.): 62%
- inhibition in vivo at 0.1 mg ([1]; read-out: Average Perdosage % Inhibition, dose 100 (micrograms) i.p.): 64%
- inhibition in vivo at 0.2 mg ([1]; read-out: Average Perdosage % Inhibition, dose 200 (micrograms) i.p.): 77%
- Average Spleen Weight ([1]; dose 2 × 100 (micrograms) i.p.): 0.6575
- Average Spleen Weight ([1]; dose 50 (micrograms) i.p.): 0.8921
- Average Spleen Weight ([1]; dose 100 (micrograms) i.p.): 0.8615
- Average Spleen Weight ([1]; dose 200 (micrograms) i.p.): 0.6086
- Pooled Average % Inhibition [1]: 70%
- pEC50 [2]: 3.84
- pEC50 [3]: < 4.39

Compound: CC(=O)Oc1cc(C)c2c3c(C)cc(OC(C)=O)c4c(=O)c5c(OC(C)=O)cc(OC(C)=O)c6c7c(OC(C)=O)cc(OC(C)=O)c8c(=O)c1c2c(c87)c(c43)c56 [HHA, Hypericin hexaacetate]
- pEC50 [2]: < 3.70
- pEC50 [3]: 4.89
- Average CPM ([4]; 0.05 micrograms, Table VI): 466,981 CPM
- CPM ([4]; 0.05 micrograms, Table VI): 441,410 CPM and 492,552 CPM
- Average CPM ([4]; 0.1 micrograms, Table VI): 202,454 CPM
- Average percent inhibition ([4]; 0.1 micrograms, Table VI): 54.8%
- CPM ([4]; 0.1 micrograms, Table VI): 208,882 CPM and 196,026 CPM
- Average CPM ([4]; 0.5 micrograms, Table VI): 501,386 CPM
- CPM ([4]; 0.5 micrograms, Table VI): 518,336 CPM and 484,356 CPM
- Average CPM ([4]; 1 microgram, Table VI): 451,634 CPM
- CPM ([4]; 1 microgram, Table VI): 401,306 CPM and 501,962 CPM
- Average CPM ([4]; 5 micrograms, Table VI): 205,891 CPM
- Average percent inhibition ([4]; 5 micrograms, Table VI): 54.1%
- CPM ([4]; 5 micrograms, Table VI): 221,098 CPM and 190,604 CPM
- Average CPM ([4]; 10 micrograms, Table VI): 91,440 CPM
- Average percent inhibition ([4]; 10 micrograms, Table VI): 79.6%
- CPM ([4]; 10 micrograms, Table VI): 96,654 CPM and 86,226 CPM
- Average CPM ([4]; 50 micrograms, Table VI): 5,305 CPM
- Average percent inhibition ([4]; 50 micrograms, Table VI): 98.8%
- CPM ([4]; 50 micrograms, Table VI): 5,236 CPM and 5,374 CPM
- Average CPM ([4]; 100 micrograms, Table VI): 2,545 CPM
- Average percent inhibition ([4]; 100 micrograms, Table VI): 99.4%
- CPM ([4]; 100 micrograms, Table VI): 2,750 CPM and 2,340 CPM
- inhibition of RadLV reverse transcriptase activity ([4]; Example 4): about as active a protohypericin in inhibiting the RadLV reverse transcriptase activity

Compound: CC(=O)Oc1cc(O)c2c(=O)c3c(O)cc(C)c4c5c(C)cc(O)c6c(=O)c7c(O)cc(OC(C)=O)c8c1c2c(c34)c(c65)c78 [WIS-6, hypericin diacetate]
- pEC50 [2]: < 3.59
- pEC50 [3]: 6.07
- Average CPM ([4]; 0.05 micrograms, Table VIII): 190,506 CPM
- CPM ([4]; 0.05 micrograms, Table VIII): 195,374 CPM and 185,638 CPM
- Average CPM ([4]; 0.1 micrograms, Table VIII): 389,388 CPM
- CPM ([4]; 0.1 micrograms, Table VIII): 188,378 CPM and 590,398 CPM
- Average CPM ([4]; 0.5 micrograms, Table VIII): 161,570 CPM
- CPM ([4]; 0.5 micrograms, Table VIII): 116,590 CPM and 206,550 CPM
- Average CPM ([4]; 1 microgram, Table VIII): 153,363 CPM
- CPM ([4]; 1 microgram, Table VIII): 124,996 CPM and 181,730 CPM
- Average CPM ([4]; 2 micrograms, Table VIII): 94,199 CPM
- CPM ([4]; 2 micrograms, Table VIII): 96,562 CPM and 91,836 CPM
- Average CPM ([4]; 5 micrograms, Table VIII): 90,273 CPM
- CPM ([4]; 5 micrograms, Table VIII): 86,850 CPM and 93,696 CPM
- Average CPM ([4]; 10 micrograms, Table VIII): 146,588 CPM
- CPM ([4]; 10 micrograms, Table VIII): 178,026 CPM and 115,150 CPM
- inhibition at 50 ng ([4]; 0.5 h, 0.05 micrograms, Table VIII): 76.7%
- inhibition at 0.0001 mg ([4]; 0.5 h, 0.1 micrograms, Table VIII): 52.3%
- inhibition at 0.0005 mg ([4]; 0.5 h, 0.5 micrograms, Table VIII): 80.2%
- inhibition at 0.001 mg ([4]; 0.5 h, 1 microgram, Table VIII): 81.2%
- inhibition at 0.002 mg ([4]; 0.5 h, 2 micrograms, Table VIII): 88.5%
- inhibition at 0.005 mg ([4]; 0.5 h, 5 micrograms, Table VIII): 88.9%
- inhibition at 0.01 mg ([4]; 0.5 h, 10 micrograms, Table VIII, read-out: Average % Inhibition): 82%
- Average % Inhibition ([5]; 1 microgram): 18.4%
- Average Spleen Weight ([5]; 1 microgram): 0.8210
- Actual Spleen Weight ([5]; 1 microgram): 0.9291 and 0.8017 and 0.7323
- Average % Inhibition ([5]; 10 micrograms): 9.2%
- Average Spleen Weight ([5]; 10 micrograms): 0.8930
- Actual Spleen Weight ([5]; 10 micrograms): 0.8387 and 0.8529 and 0.9874
- Average % Inhibition ([5]; 50 micrograms): 3.2%
- Average Spleen Weight ([5]; 50 micrograms): 0.9407
- Actual Spleen Weight ([5]; 50 micrograms): 0.9012 and 0.9969 and 0.9241
- Average % Inhibition ([5]; 150 micrograms): 18.6%
- Average Spleen Weight ([5]; 150 micrograms): 0.8187
- Actual Spleen Weight ([5]; 150 micrograms): 0.7921 and 0.8013 and 0.8626
